IC50 and EC50 data for 20 compounds are collected here from ChEMBL document CHEMBL1137843, “N-4-Substituted-benzyl-N'-tert-butylbenzyl thioureas as vanilloid receptor ligands: investigation on the role of methanesulfonamido group in antagonistic activity” (Bioorg Med Chem Lett, 2004).

Molecules are shown by their SMILES. Where only a bound is given, the exact number is not on record here.

The first experiment concerns the target T1, Vanilloid receptor (Rattus norvegicus, UniProt Q9ERZ8+Q9WUD2+O35433). The experiment in a line: In vitro antagonist activity at the vanilloid receptor in rat DRG neurons. Format: functional.
Take `CC(C)(C)c1ccc(C/N=C(\S)NCc2ccc(NS(=O)(=O)C(F)(F)F)cc2)cc1`: the half-maximal inhibitory concentration (IC50) was 12.4 µM.
`CN(c1ccc(C/N=C(\S)NCc2ccc(C(C)(C)C)cc2)cc1)S(C)(=O)=O` displayed a half-inhibitory concentration (IC50) of 2.5 µM. This IC50 lies about 5-fold lower than the previous one.
For `CC(C)(C)c1ccc(C/N=C(\S)NCc2ccc(C(F)(F)F)cc2)cc1`, the IC50 was determined as 12.4 µM.
Same read-out and setting: the same measure for `COc1cc(C/N=C(\S)NCc2ccc(C(C)(C)C)cc2)ccc1OS(C)(=O)=O`: 0.3 µM.
On the same count and under the same terms, the same measure for `CCS(=O)(=O)Nc1ccc(C/N=C(\S)NCc2ccc(C(C)(C)C)cc2)cc1`: 1.3 µM.
In turn, `CCCCS(=O)(=O)Nc1ccc(C/N=C(\S)NCc2ccc(C(C)(C)C)cc2)cc1` yielded an IC50 of 4.1 µM.
The compound `CC(C)(C)c1ccc(C/N=C(\S)NCc2ccc(NS(N)(=O)=O)cc2)cc1` yielded an IC50 of 1 µM.
The same measure, in the same setting: the same measure for `CC(C)(C)c1ccc(C/N=C(\S)NCc2ccc(OS(C)(=O)=O)cc2)cc1`: 9.3 µM; for `CNS(=O)(=O)Nc1ccc(C/N=C(\S)NCc2ccc(C(C)(C)C)cc2)cc1`: 2.5 µM.
Regarding `CC(C)(C)c1ccc(C/N=C(\S)NCc2ccc(NS(=O)(=O)CC(F)(F)F)cc2)cc1`, the 50% inhibitory concentration (IC50) worked out at 11.7 µM.
In turn, `CC(C)(C)c1ccc(C/N=C(\S)NCc2ccc(NS(=O)(=O)Cc3ccccc3)cc2)cc1` registered a half-inhibitory concentration (IC50) of 1.5 µM.
Take `CN(C)S(=O)(=O)Nc1ccc(C/N=C(\S)NCc2ccc(C(C)(C)C)cc2)cc1`: the half-maximal inhibitory concentration (IC50) came to 14.6 µM.
The same measure, in the same setting: the figure for `CC(C)S(=O)(=O)Nc1ccc(C/N=C(\S)NCc2ccc(C(C)(C)C)cc2)cc1` is 3.8 µM; for `CCCS(=O)(=O)Nc1ccc(C/N=C(\S)NCc2ccc(C(C)(C)C)cc2)cc1` it is 4.5 µM.
On the same count and under the same terms, the figure for `Oc1cc2c(cc1O)CN(C(=S)NCCc1ccc(Cl)cc1)CCC2` [CAPSAZEPINE] is 0.65 µM.

A further experiment concerns the target T1, Vanilloid receptor. Nature of the experiment: In vitro antagonist activity at vanilloid receptor in rat dorsal root ganglia (partial at 30 uM). It is filed as functional.
`CC(C)(C)c1ccc(C/N=C(\S)NCc2ccc([N+](=O)[O-])cc2)cc1` had a half-maximal inhibitory concentration (IC50) above 30 µM.
Still for that read-out and setting: the figure for `CC(C)(C)c1ccc(C/N=C(\S)NCc2ccc(NC(=N)S)cc2)cc1` is above 30 µM; for `CC(C)(C)c1ccc(C/N=C(\S)NCc2ccc(NS(=O)(=O)c3cccs3)cc2)cc1` it is above 30 µM.

A further experiment concerns the target T1, Vanilloid receptor. Nature of the experiment: In vitro agonist activity, increased [Ca2+] influx, at vanilloid receptor of rat dorsal root ganglia (partial at 30 uM). Format: functional.
In the case of `CC(C)(C)c1ccc(C/N=C(\S)NCc2ccc(NC(=N)S)cc2)cc1`, the EC50 is above 30 µM.
The same measure, in the same setting: the same measure for `CC(C)(C)c1ccc(C/N=C(\S)NCc2ccc(O)cc2)cc1`: above 30 µM.

Another experiment concerns the target T1, Vanilloid receptor. The experiment in a line: In vitro agonist activity, increased [Ca2+] influx, at vanilloid receptor of rat dorsal root ganglia. It is filed as functional.
Take `CC(C)(C)c1ccc(C/N=C(\S)NCc2ccc(N)cc2)cc1`: the 50% effective concentration (EC50) is 7 µM.

Broadly, the IC50 is the concentration that gives 50% inhibition. What is called EC50 is the concentration needed to bring the measured effect to its halfway point. A lower EC50 goes with higher potency in that assay.
